# “And” between values parts separate entries of the source, which are not always exact repeats. Equal entries are not always repeated. Toxic doses and inconclusive results are not listed. Peptide text beside a SMILES is read from it.
# Tested on: P388 leukemia ip, CD2F1 mice, survival T/C
# Assay: NCI In Vivo Anticancer Drug Screen. Data for tumor model P388 Leukemia (intraperitoneal) in CD2F1 (CDF1) mice
# Conditions: endpoint: median survival time, higher = longer survival
# Procedure, shortened: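 Mice carrying the transplanted tumor received test compound or vehicle. Survival was recorded in each group, and the value is the treated-group measurement divided by that of the vehicle-treated control group.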
# [1] = dose: 50.0 mg/kg/injection, schedule: Q01DX009 (ip), vehicle: saline with Tween-80
# [2] = dose: 100.0 mg/kg/injection, schedule: Q01DX009 (ip), vehicle: saline with Tween-80
# [3] = dose: 200.0 mg/kg/injection, schedule: Q01DX009 (ip), vehicle: saline with Tween-80
# [4] = dose: 50.0 mg/kg/injection, schedule: Q01DX005 (ip), vehicle: saline with Tween-80
# [5] = dose: 100.0 mg/kg/injection, schedule: Q01DX005 (ip), vehicle: saline with Tween-80
# [6] = dose: 200.0 mg/kg/injection, schedule: Q01DX005 (ip), vehicle: saline with Tween-80
# [7] = dose: 50.0 mg/kg/injection, schedule: Q01DX005 (ip), vehicle: Klucel (hydroxypropylcellulose) (HPC)
# [8] = dose: 100.0 mg/kg/injection, schedule: Q01DX005 (ip), vehicle: Klucel (hydroxypropylcellulose) (HPC)
# [9] = dose: 200.0 mg/kg/injection, schedule: Q01DX005 (ip), vehicle: Klucel (hydroxypropylcellulose) (HPC)
# [10] = dose: 100.0 mg/kg/injection, schedule: Q01DX001 (ip), vehicle: saline with Tween-80
# [11] = dose: 200.0 mg/kg/injection, schedule: Q01DX001 (ip), vehicle: saline with Tween-80
# [12] = dose: 400.0 mg/kg/injection, schedule: Q01DX001 (ip), vehicle: saline with Tween-80
# [13] = dose: 60.0 mg/kg/injection, schedule: Q01DX005 (ip), vehicle: saline with Tween-80
# [14] = dose: 120.0 mg/kg/injection, schedule: Q01DX005 (ip), vehicle: saline with Tween-80
# [15] = dose: 50.0 mg/kg/injection, schedule: Q01DX009 (ip), vehicle: Klucel (hydroxypropylcellulose) (HPC)
# [16] = dose: 100.0 mg/kg/injection, schedule: Q01DX009 (ip), vehicle: Klucel (hydroxypropylcellulose) (HPC)
# [17] = dose: 200.0 mg/kg/injection, schedule: Q01DX009 (ip), vehicle: Klucel (hydroxypropylcellulose) (HPC)
# [18] = dose: 100.0 mg/kg/injection, schedule: Q04DX003 (ip), vehicle: saline with Tween-80
# [19] = dose: 200.0 mg/kg/injection, schedule: Q04DX003 (ip), vehicle: saline with Tween-80
# [20] = dose: 50.0 mg/kg/injection, schedule: Q01DX009 (ip), vehicle: saline
# [21] = dose: 100.0 mg/kg/injection, schedule: Q01DX009 (ip), vehicle: saline
# [22] = dose: 200.0 mg/kg/injection, schedule: Q01DX009 (ip), vehicle: saline
compound,measurement,setting,value
CCOCC1COc2c(cc3[nH]cc(C(=O)OCC)c(=O)c3c2Cl)O1 (stereo unspecified) (tested in a mixture with another compound),T/C,[1],94 % of control
same,T/C,[2],99 % of control
same,T/C,[3],101 % of control
O=C(/C=C/c1ccc2c(c1)OCO2)c1cc(Cl)ccc1O,T/C,[4],93 % of control
same,T/C,[5],98 % of control
same,T/C,[6],102 % of control
O=[N+]([O-])c1ccccc1C=Nc1ccc2nc(SCc3ccccc3)sc2c1,T/C,"dose: 100.0 mg/kg/injection, schedule: Q04DX003 (ip), vehicle: Klucel (hydroxypropylcellulose) (HPC)",100 % of control
same,T/C,"dose: 200.0 mg/kg/injection, schedule: Q04DX003 (ip), vehicle: Klucel (hydroxypropylcellulose) (HPC)",95 % of control
same,T/C,"dose: 400.0 mg/kg/injection, schedule: Q04DX003 (ip), vehicle: Klucel (hydroxypropylcellulose) (HPC)",89 % of control
CC(=O)c1cccc2cccc([N+](=O)[O-])c12,T/C,[2],104 % of control
same,T/C,[3],90 % of control
same,T/C,"dose: 400.0 mg/kg/injection, schedule: Q01DX009 (ip), vehicle: saline with Tween-80",104 % of control
C=CCC1CCSC1=O (stereo unspecified),T/C,"dose: 25.0 mg/kg/injection, schedule: Q04DX003 (ip), vehicle: saline with Tween-80",109 % of control
CCCCn1c2nc(=O)[nH]c(=O)c-2cc2ccccc21,T/C,"dose: 25.0 mg/kg/injection, schedule: Q01DX009 (ip), vehicle: saline with Tween-80",98 % of control
same,T/C,[1],94 % of control
same,T/C,[2],91 % of control
O=C(Nc1ccccc1C(=O)OCCCl)NN1CCCCCC1,T/C,[7],107 % of control
same,T/C,[8],100 % of control
same,T/C,[9],98 % of control
CCN(CC)CCCNc1cnc2ccc(OC)cc2n1,T/C,"dose: 25.0 mg/kg/injection, schedule: Q04DX003 (ip), vehicle: saline",94 % of control
same,T/C,"dose: 50.0 mg/kg/injection, schedule: Q04DX003 (ip), vehicle: saline",91 % of control
same,T/C,"dose: 100.0 mg/kg/injection, schedule: Q04DX003 (ip), vehicle: saline",103 % of control
O=C1c2ccccc2S(=O)(=O)N1Cc1ccccc1CN1C(=O)c2ccccc2S1(=O)=O,T/C,[7],92 % of control
same,T/C,[8],89 % of control
same,T/C,[9],89 % of control
CN(C)C1CCC(NC2=CC(=O)C(NC3CCC(N(C)C)CC3)=CC2=O)CC1 (stereo unspecified),T/C,"dose: 1.56 mg/kg/injection, schedule: Q01DX005 (ip), vehicle: distilled water + alcohol",95 % of control
same,T/C,"dose: 3.12 mg/kg/injection, schedule: Q01DX005 (ip), vehicle: distilled water + alcohol",99 % of control
same,T/C,"dose: 6.25 mg/kg/injection, schedule: Q01DX005 (ip), vehicle: distilled water + alcohol",100 % of control and 96 % of control
CCO/C=N\c1c(NC(N)=O)cnn1Cc1ccccc1,T/C,[10],96 % of control
same,T/C,[11],93 % of control
same,T/C,[12],98 % of control
Nc1cc2ccccc2c(Br)n1,T/C,[10],100 % of control
same,T/C,[11],95 % of control
same,T/C,[12],100 % of control
O=C(Nc1ccc(C2=NCCCN2)cc1)c1ccc(C(=O)Nc2ccc(C3=NCCCN3)cc2)nc1,T/C,"dose: 2.5 mg/kg/injection, schedule: Q01DX009 (ip), vehicle: saline",100 % of control
same,T/C,"dose: 5.0 mg/kg/injection, schedule: Q04DX003 (ip), vehicle: saline",95 % of control
same,T/C,"dose: 10.0 mg/kg/injection, schedule: Q04DX003 (ip), vehicle: saline",90 % of control
CS(=O)(=O)OCC1CCSC1=O (stereo unspecified),T/C,[1],100 % of control
same,T/C,[2],106 % of control
same,T/C,[3],108 % of control
COC(=O)c1nnn(-c2cc(Cl)ccc2Cl)c1C(=O)c1ccc(Cl)c(Cl)c1,T/C,[13],99 % of control
same,T/C,[14],96 % of control
same,T/C,"dose: 240.0 mg/kg/injection, schedule: Q01DX005 (ip), vehicle: saline with Tween-80",87 % of control
CCOc1ccccc1N=Nc1c(C)nc(N)nc1OCC,T/C,"dose: 60.0 mg/kg/injection, schedule: Q01DX005 (ip), vehicle: Klucel (hydroxypropylcellulose) (HPC)",100 % of control
same,T/C,"dose: 120.0 mg/kg/injection, schedule: Q01DX005 (ip), vehicle: Klucel (hydroxypropylcellulose) (HPC)",110 % of control
same,T/C,"dose: 240.0 mg/kg/injection, schedule: Q01DX005 (ip), vehicle: Klucel (hydroxypropylcellulose) (HPC)",110 % of control
COc1cccc([B-]23OCC[N+]2(CNC(=O)C2=C(O)C4(O)C(=O)C5=C(O)c6c(O)cccc6C(C)(O)C5CC4C(N(C)C)C2=O)CCO3)c1 (stereo unspecified),T/C,[7],110 % of control
same,T/C,[8],105 % of control
same,T/C,[9],115 % of control
CCc1ccc[n+](CCC2CNc3ccccc32)c1 (stereo unspecified),T/C,"dose: 12.5 mg/kg/injection, schedule: Q01DX005 (ip), vehicle: saline",98 % of control
same,T/C,"dose: 25.0 mg/kg/injection, schedule: Q01DX005 (ip), vehicle: saline",100 % of control
same,T/C,"dose: 50.0 mg/kg/injection, schedule: Q01DX005 (ip), vehicle: saline",100 % of control and 110 % of control
C[Si]1(C)N(c2ccccc2)[Si](C)(c2ccccc2)N1c1ccccc1,T/C,[7],94 % of control
same,T/C,[8],111 % of control
same,T/C,[9],111 % of control
O=[N+]([O-])c1ccc(/C=C/c2cccs2)c([N+](=O)[O-])c1,T/C,[15],105 % of control
same,T/C,[16],94 % of control
same,T/C,[17],88 % of control
CC1(C)C2=CCCC3(OCCO3)C2(C)CCC1O (stereo unspecified),T/C,[18],90 % of control
same,T/C,[19],90 % of control
same,T/C,"dose: 400.0 mg/kg/injection, schedule: Q04DX003 (ip), vehicle: saline with Tween-80",90 % of control
O=C(O)CCCC1CCCCC1.[Mn],T/C,[4],116 % of control
same,T/C,[5],108 % of control
same,T/C,[6],99 % of control
O=C(CCSc1ncnc2nc[nH]c12)c1ccccc1,T/C,[20],94 % of control
same,T/C,[21],92 % of control
same,T/C,[22],86 % of control
CSc1cc(SC)c(SC)nn1,T/C,[1],106 % of control
same,T/C,[2],109 % of control
same,T/C,[3],98 % of control
CC(C)C(NC(=O)C(N)CCCN=C(N)N)C(=O)O (stereo not drawn) (H-Arg-Val-OH; configuration not given here),T/C,[4],91 % of control
same,T/C,[5],100 % of control
same,T/C,[6],100 % of control
CC1C2C=CC1C=C2 (stereo unspecified),T/C,[20],98 % of control
same,T/C,[21],91 % of control
same,T/C,[22],98 % of control
COC(=O)C(NC(=O)c1ccccc1)C1CCC(Cl)CN1C(=O)OCc1ccccc1 (stereo unspecified),T/C,"dose: 8.75 mg/kg/injection, schedule: Q01DX009 (ip), vehicle: Klucel (hydroxypropylcellulose) (HPC)",100 % of control
same,T/C,"dose: 17.5 mg/kg/injection, schedule: Q01DX009 (ip), vehicle: Klucel (hydroxypropylcellulose) (HPC)",100 % of control
same,T/C,"dose: 35.0 mg/kg/injection, schedule: Q01DX009 (ip), vehicle: Klucel (hydroxypropylcellulose) (HPC)",100 % of control
same,T/C,"dose: 70.0 mg/kg/injection, schedule: Q01DX009 (ip), vehicle: Klucel (hydroxypropylcellulose) (HPC)",92 % of control
CCCOc1ccc(-c2nc(-c3ccc(N)cc3)cs2)cc1,T/C,[15],111 % of control
same,T/C,[16],109 % of control
same,T/C,[17],109 % of control
CC1=Nc2ccccc2N(C)/C1=C/C1=CC(=O)c2ccccc2C1=O,T/C,[18],108 % of control
same,T/C,[19],117 % of control
Nc1cc2[nH]c(=O)oc2cc1Cl,T/C,[7],94 % of control
same,T/C,[8],100 % of control
same,T/C,[9],94 % of control
COc1ccc(-c2c(-c3ccccc3)oc(/N=C/c3ccccc3)c2-c2ccccc2)cc1,T/C,"dose: 12.5 mg/kg/injection, schedule: Q01DX005 (ip), vehicle: saline with Tween-80",101 % of control
same,T/C,"dose: 25.0 mg/kg/injection, schedule: Q01DX005 (ip), vehicle: saline with Tween-80",90 % of control
same,T/C,[4],90 % of control
CCOC(=O)C1=C(C(=O)c2ccc(OC)cc2)C(c2ccc(OC)c(OC)c2)C(C(=O)c2ccc(OC)cc2)=C(C(=O)OCC)N1,T/C,[13],90 % of control
same,T/C,[14],91 % of control
CSc1nc2c(=S)[nH]cnc2s1,T/C,"dose: 100.0 mg/kg/injection, schedule: Q04DX002 (ip), vehicle: saline with Tween-80",95 % of control
same,T/C,"dose: 200.0 mg/kg/injection, schedule: Q04DX002 (ip), vehicle: saline with Tween-80",92 % of control
same,T/C,"dose: 400.0 mg/kg/injection, schedule: Q04DX002 (ip), vehicle: saline with Tween-80",92 % of control
